Key:
Rattus norvegicus [1] = experiment: Toxicity in Wistar rat assessed as bile flow per gm of liver at 5 mg/kg, sc administered as single dose after 5 hrs (reference value: 1.40 +/- 0.14 ul/min); type: organism-based; parameters: dose 5 mg/kg, route subcutaneous; details: in vivo
Rattus norvegicus [2] = experiment: Toxicity in Wistar rat assessed as biliary excretion of total bile salts per gm of liver at 5 mg/kg, sc administered as single dose after 5 hrs (reference value: 50 +/- 6 nmol/min); type: organism-based; parameters: dose 5 mg/kg, route subcutaneous; details: in vivo
Rattus norvegicus [3] = experiment: Toxicity in Wistar rat assessed as biliary excretion of total glutathione per gm of liver at 5 mg/kg, sc administered as single dose after 5 hrs (reference value: 2 +/- 0.79 nmol/min); type: organism-based; parameters: dose 5 mg/kg, route subcutaneous; details: in vivo
Rattus norvegicus [4] = experiment: Toxicity in Wistar rat assessed as serum ALP activity at 5 mg/kg, sc administered as single dose after 5 hrs (reference value: 256 +/- 10 U/l); type: organism-based; parameters: dose 5 mg/kg, route subcutaneous; details: in vivo
Rattus norvegicus [5] = experiment: Toxicity in Wistar rat assessed as increase in Mrp3 mRNA level at 5 mg/kg, sc administered as single dose after 5 hrs by qRT-PCR analysis; type: organism-based; parameters: dose 5 mg/kg, route subcutaneous; details: in vivo
Hepatocyte [6] = experiment: Effect on Mrp2 mRNA level in Wistar rat hepatocytes at 1 to 10 uM after 5 hrs by qRT-PCR analysis; type: ADME, cell-based
Hepatocyte [7] = experiment: Effect on total ER level in Wistar rat hepatocytes nuclear extract at 10 uM after 30 to 120 mins by Western blot analysis; type: ADME, cell-based

Question: Which Activity (Rattus norvegicus [1]) does the source give for `C#C[C@]1(O)CC[C@H]2[C@@H]3CCc4cc(O)ccc4[C@H]3CC[C@@]21C` [ETHINYL ESTRADIOL] here?
Answer: 1.35 µL/min

Question: And the Activity (Rattus norvegicus [2])?
Answer: 47 nmol/min

Question: What about the Activity (Rattus norvegicus [3]) of the same compound?
Answer: 1.8 nmol/min

Question: And the Activity (Rattus norvegicus [4])?
Answer: 269 U/L

Question: What about the Activity (Rattus norvegicus [5]) of the same compound?
Answer: 330%

Question: And the Activity (Hepatocyte [6])?
Answer: Not Active

Question: And the Activity (Hepatocyte [7])?
Answer: Non-toxic
